Laboratory results from patent US20230218652A1, “ANTIFUNGAL PRODRUGS” (CENTRE NATIONAL DE LA RECHERCHE SCIENTIFIQUE, priority 2020, published 2023).
“Also recorded” adds a separate entry of the source. Read-outs that look alike come from different tables or passages of the source.

Experiments:
[1] = test system: Candida albicans (blastospores); experiment: Antifungal activity in vitro, broth microdilution (blastospores); type: cell-based; conditions: mean ± SEM
Procedure: (§1) Half maximal inhibitory concentration (IC50) required to inhibit 50% of the in vitro cell growth or viability were determined with broth microdilution method according to the European committee on antimicrobial susceptibility testing recommendations (protocols E.DEF 7.3.1 for Candida spp.) and according to a certified internal procedure to the laboratory IICiMed (for Leishmania spp.) (Le Pape, et al. Acta Parasitologica 2002, 47, 79-81). […]
(§2) Growth or cell viability was performed on flat-bottomed microplate, firstly appreciated by visual reading and always confirmed using a Bio-Rad iMark microplate absorbance reader to measure the absorbance of the plate at 595 nm or using a resazurin salt cell viability assay with a Packard fluorocount microplate reader BF10000 with halogen light source to measure the fluorescence at 590 nm after excitation at 530 nm. Results represent the mean (±the standard error of the mean SEM if available) calculated from at least two independent experiments performed each in triplicate on one or several strains. […]

[2] = test system: Candida albicans (filamented yeasts); experiment: Antifungal activity in vitro, broth microdilution (filamented yeasts); type: cell-based; conditions: mean ± SEM
Procedure: as §1, §2

[3] = test system: Leishmania major (promastigote); experiment: Antiparasitic activity in vitro (promastigote); type: cell-based; conditions: mean ± SEM
Procedure: as §1, §2

[4] = test system: Leishmania major (amastigote); experiment: Antiparasitic activity in vitro (intracellular amastigote); type: cell-based; conditions: intracellular amastigotes
Procedure: as §1, §2

[5] = test system: Cryptococcus gattii; experiment: Antifungal activity in vitro; type: cell-based
Procedure: (§3) Half maximal inhibitory concentration (IC50) required to inhibit 50% of the in vitro cell growth or viability were determined with broth microdilution method according to the European committee on antimicrobial susceptibility testing recommendations (protocols E.DEF 7.3.1 for Candida spp.) and according to a certified internal procedure to the laboratory IICiMed (for Leishmania spp.) (Le Pape, et al. Acta Parasitologica 2002, 47, 79-81).
(§4) Growth or cell viability was performed on flat-bottomed microplate, firstly appreciated by visual reading and always confirmed using a Bio-Rad iMark microplate absorbance reader to measure the absorbance of the plate at 595 nm or using a resazurin salt cell viability assay with a Packard fluorocount microplate reader BF10000 with halogen light source to measure the fluorescence at 590 nm after excitation at 530 nm. Results represent the mean (±the standard error of the mean SEM if available) calculated from at least two independent experiments performed each in triplicate on one or several strains. The values are expressed with the corresponding pathogens and are represented in μM.

[6] = test system: Cryptococcus neoformans; experiment: Antifungal activity in vitro; type: cell-based
Procedure: as §3, §4

[7] = Human cells cytotoxicity, HeLa; type: cell-based; conditions: human, HeLa cells; HeLa cell line
Procedure: as §3
(§5) The different strains, isolates and cell lines used are listed below: • Candida albicans clinical strain (IICiMed number CAAL93) • Candida albicans clinical strain (IICiMed number CAAL121) • Candida albicans reference strain SC5314 (IICiMed number CAAL146) • Leishmania major reference isolate MHOM/IL/81/BNI (IICiMed number LEMA1) • A549 cell line reference ATCC® CCL-185 (carcinoma epithelial cells from lung) • HeLa cell line reference
as §4

[8] = test system: HeLa cells; experiment: Human cells cytotoxicity, HeLa; type: cell-based; conditions: for IC50: HeLa cell line
Procedure: as §3, §5, §4

[9] = Human cells cytotoxicity, A549; type: cell-based; conditions: human, A549 cells (ATCC CCL-185, lung carcinoma epithelial cells), pneumocyte line A549
Procedure: as §1, §2

[10] = test system: A549; experiment: Human cells cytotoxicity, A549; type: cell-based; conditions: pneumocyte line A549
Procedure: as §1, §2

[11] = Human cells cytotoxicity, hPBMC; type: cell-based; conditions: human peripheral blood mononuclear cells (hPBMC); human PBMC
[12] = Aqueous stability in the absence of enzyme; type: physicochemical; conditions: for aqueous stability (in words): aqueous medium/buffer, 37° C., absence of the enzyme
Procedure: Enzymatic Release and Aqueous Stability In vitro enzymatic hydrolysis was carried out with commercial β-N-acetylhexosaminidase from Canavalia ensiformis E.C. 3.2.1.52 (22.8 units·mg^−1 protein, suspension in 2.5 M ammonium sulfate, pH 7.0). Using a VWR® Cooling Thermal Shake Touch and monitoring by analytical LC. Prodrug 1 was incubated with the enzyme according to the table below: […]

[13] = test system: C. albicans blastoconidia; experiment: Mouse model of C. albicans blastoconidia infection; type: in vivo, mice; conditions: 1 mg/kg i.p. once daily for 3 days, listed as AmB prodrug
Procedure: Mice were immunosuppressed by subcutaneous injection of 30 mg/kg prednisolone one day before challenge. On day 0, mice were infected intravenously C. albicans blastoconidia. One hour after infection, mice were treated intraperitoneally once daily with 1 mg/kg body weight of Fungizone®, Ambisome® and AmB prodrug (Compound 1, FIG. 1A) for 3 consecutive days. The control group received sterile distillated water (vehicle). Survival was monitored for 14 days post inoculation. Differences in cohorts were analyzed by the log-rank test. On day 14, all mice were euthanized and their kidneys were excised and weighed. Tissues were homogenized and serially diluted 10- to 1000-fold in sterile saline, then plated onto Sabouraud dextrose agar and incubated for 48 h to determine the number of CFUs. Tissue fungal burden was expressed as average log CFUs/gram of tissue. Differences in mean CFUs in kidneys were compared with the vehicle control using a one-way ANOVA with a post-hoc Tukey test. A P value of <0.05 was considered statistically significant.

[14] = test system: Galleria mellonella; experiment: Toxicity on the Galleria mellonella model; type: in vivo; conditions: uninfected larvae, dose 2 mg·kg-1
Procedure: The larval model represents a rapid and practical tool for assessing the intrinsic toxicity of an active substance. See Le Pape et al, 2019, Int J Infect Dis. 2019 April; 81:85-90 for more details concerning the model. The larvae were incubated with AmB, AmB prodrug (Compound 1) and vehicle. At the dose of 2 mg·kg-1, AmB was very toxic leading to a 40% survival of the treated group. In comparison, at an equivalent dose, its prodrug was much less toxic with a percentage survival of 80%.

[15] = test system: Cryptococcus neoformans; experiment: In vivo anti-Cryptococcus activity in Galleria mellonella model (C. neoformans); conditions: dose 2 mg·kg-1
Procedure: (§6) This model also constitutes a screening model and a good alternative to the traditional studies on murine models for the evaluation of the activity of antifungal molecules. The AmB prodrug of the invention (Compound 1) was evaluated for its antifungal efficacy against Cryptococcus neoformans and Cr. gattii. […] In the absence of treatment, all larvae died after 6 days and 5 days, respectively. For Cryptococcus neoformans, at a dose of 2 mg·kg-1, amphotericin B led to 50% survival and its prodrug was also effective with a percentage survival of 30% at an equivalent dose.

[16] = test system: Cr. gattii; experiment: In vivo anti-Cryptococcus activity in Galleria mellonella model (Cr. gattii)
Procedure: as §6
In the case of Cr. gattii, amphotericin B and the prodrug led to 30% and 20% survival respectively.

Q: Which IC50 ([1]; Candida albicans) does the source give for CC(=O)N[C@H]1[C@H](Oc2ccc(COC(=O)N[C@@H]3[C@H](O)[C@H](O[C@H]4/C=C/C=C/C=C/C=C/C=C/C=C/C=C/[C@H](C)[C@@H](O)[C@@H](C)[C@H](C)OC(=O)C[C@H](O)C[C@H](O)CC[C@@H](O)[C@H](O)C[C@H](O)C[C@]5(O)C[C@H](O)[C@@H](C(=O)O)[C@H](C4)O5)O[C@H](C)[C@H]3O)cc2[N+](=O)[O-])O[C@H](CO)[C@@H](O)[C@@H]1O [Compound 1] here?
A: 430 ± 20 nM

Q: And the IC50 ([2]; Candida albicans)?
A: 420 ± 10 nM

Q: And the IC50 ([3]; Leishmania major)?
A: 270 ± 60 nM

Q: And the IC50 ([4]; Leishmania major)?
A: < 100 nM

Q: And the IC50 ([5]; Cryptococcus gattii)?
A: 600 nM

Q: And the IC50 ([6]; Cryptococcus neoformans)?
A: 250 nM

Q: What about the IC50 [7] of the same molecule?
A: > 100000 nM

Q: What about the “toxicity on HELA cells (in words)” value [8] of the same molecule?
A: does not exhibit any significant toxicity

Q: What about the IC50 [9] of the same molecule?
A: > 50000 nM

Q: What about the IC50 [10] of the same molecule?
A: > 100000 nM

Q: And the IC50 [11]?
A: > 50000 nM

Q: And the “aqueous stability (in words)” value ([12]; listed as AmB prodrug)?
A: stable

Q: What about the “aqueous stability (in words)” value ([12]; listed as prodrug) of the same molecule?
A: stable

Q: What about the “aqueous stability (in words)” value ([12]; listed as prodrug 1) of the same molecule?
A: good aqueous stability

Q: And the half-life ([12]; aqueous solution without enzyme, aqueous, pH 7.4, 37° C., read-out: t1/2 aq, pH 7.4, 37° C.)?
A: > 24 h

Q: What about the “fungal burden of the kidney” value ([13]; day 14, vs control group) of the same molecule?
A: significantly reduction of the burden; also recorded: significant decrease in the kidney fungal load

Q: And the survival ([13]; immunosuppressed mice, 14 days monitoring, vs vehicle, 1 mg/kg)?
A: statically improved survival; also recorded: significant improvement in survival

Q: What about the “survival of the treated group (toxicity)” value [14] of the same molecule?
A: 80%

Q: And the “percentage survival, larvae infected with Cryptococcus neoformans” value [15]?
A: 30%

Q: What about the “survival, larvae infected with Cr. gattii” value [16] of the same molecule?
A: 20%

Q: With C[C@@H]1[C@H](O)[C@@H](C)/C=C/C=C/C=C/C=C/C=C/C=C/C=C/[C@H](O[C@@H]2O[C@H](C)[C@@H](O)[C@H](N)[C@@H]2O)C[C@@H]2O[C@](O)(C[C@@H](O)C[C@@H](O)[C@H](O)CC[C@@H](O)C[C@@H](O)CC(=O)O[C@H]1C)C[C@H](O)[C@H]2C(=O)O [Amphotericin B, amphotericin B, reference compound] as the molecule, how does the IC50 [1] read?
A: 360 ± 40 nM

Q: And the IC50 [2]?
A: 310 ± 10 nM

Q: What about the IC50 [3] of the same molecule?
A: 310 ± 20 nM

Q: What about the IC50 [4] of the same molecule?
A: < 100 nM

Q: And the IC50 [5]?
A: 40 nM

Q: And the IC50 [6]?
A: 30 nM

Q: What about the IC50 [8] of the same molecule?
A: 23290 ± 110 nM

Q: What about the IC50 ([8]; listed as AmB) of the same molecule?
A: ~23000 nM

Q: What about the “survival of the treated group (toxicity)” value [14] of the same molecule?
A: 40%

Q: And the “percentage survival, larvae infected with Cryptococcus neoformans” value [15]?
A: 50%

Q: And the “survival, larvae infected with Cr. gattii” value [16]?
A: 30%
